Where “and” joins values, the source holds several entries; their conditions need not be identical. Equal values may be shown once.
Columns and labels:
Assay in all cases: biochemical
Type in all cases: binding
SfurOBP1 = SfurOBP1 (Sogatella furcifera, UniProt V5T8N5); settings: for Fluorescence competitive binding assay, fluorescence intensity: OBP1, three replicate columns
How it was run: (§1)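 1-NPN displacement assay with odorant competitor at 2–20 µM; protein and probe both 2.0 µM at pH 7.4. Ki is calculated from IC50 using the protein/1-NPN dissociation constant.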

SfurOBP11 = SfurOBP11 (Sogatella furcifera, UniProt V5T6E3)
How it was run: as §1

SfurOBP2 = SfurOBP2 (Sogatella furcifera, UniProt V5T759)
How it was run: as §1

SfurOBP3 = SfurOBP3 (Sogatella furcifera, UniProt V5T818); settings: for Fluorescence competitive binding assay, fluorescence intensity: OBP3, three replicate columns
How it was run: as §1

Sequence of SfurOBP11 (V5T6E3 entry or part of it): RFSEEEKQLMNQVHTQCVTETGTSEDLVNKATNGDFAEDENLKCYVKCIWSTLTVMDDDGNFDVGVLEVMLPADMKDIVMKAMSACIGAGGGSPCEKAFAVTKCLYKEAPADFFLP
Sequence of SfurOBP2 (V5T759 entry or part of it): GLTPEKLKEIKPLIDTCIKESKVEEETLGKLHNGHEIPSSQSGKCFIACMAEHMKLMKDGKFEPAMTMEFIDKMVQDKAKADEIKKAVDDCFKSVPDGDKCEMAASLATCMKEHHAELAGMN
Sequence of SfurOBP1 (V5T8N5 entry or part of it): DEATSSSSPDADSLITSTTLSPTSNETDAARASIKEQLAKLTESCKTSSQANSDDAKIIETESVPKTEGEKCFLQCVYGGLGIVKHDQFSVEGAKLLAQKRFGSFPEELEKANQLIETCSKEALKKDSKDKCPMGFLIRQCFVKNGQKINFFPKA
Sequence of SfurOBP3 (V5T818 entry or part of it): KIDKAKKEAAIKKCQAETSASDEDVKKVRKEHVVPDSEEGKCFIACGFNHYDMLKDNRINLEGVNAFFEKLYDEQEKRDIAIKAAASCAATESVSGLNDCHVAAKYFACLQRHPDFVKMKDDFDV

CCCCCCCCCCCCCCCCCC [n-octadecane]
Fluorescence competitive binding assay, fluorescence intensity (SfurOBP1; ligand concentration 2 (μM)): 9199 and 7453 and 7122
Fluorescence competitive binding assay, fluorescence intensity (SfurOBP1; ligand concentration 4 (μM)): 8077 and 8108 and 9442
Fluorescence competitive binding assay, fluorescence intensity (SfurOBP1; ligand concentration 6 (μM)): 8157 and 9511 and 12800
Fluorescence competitive binding assay, fluorescence intensity (SfurOBP1; ligand concentration 8 (μM)): 8086 and 8235 and 10013
Fluorescence competitive binding assay, fluorescence intensity (SfurOBP1; ligand concentration 10 (μM)): 9302 and 9657 and 9738
Fluorescence competitive binding assay, fluorescence intensity (SfurOBP1; ligand concentration 12 (μM)): 8567 and 10513 and 8676
Fluorescence competitive binding assay, fluorescence intensity (SfurOBP1; ligand concentration 14 (μM)): 10345 and 9766 and 9261
Fluorescence competitive binding assay, fluorescence intensity (SfurOBP1; ligand concentration 16 (μM)): 9156 and 9816 and 8326
Fluorescence competitive binding assay, fluorescence intensity (SfurOBP1; ligand concentration 18 (μM)): 11251 and 11486 and 11859
Fluorescence competitive binding assay, fluorescence intensity (SfurOBP1; ligand concentration 20 (μM)): 12749 and 11193 and 9024
IC50 (SfurOBP1; SfurOBP1, protein and 1-NPN both 2.0 µM, competitor 2-20 µM, read-out: IC50): > 20 µM
IC50 (SfurOBP11; SfurOBP11, protein and 1-NPN both 2.0 µM, competitor 2-20 µM, read-out: IC50): > 20 µM
Fluorescence intensity, fluorescence competitive binding assay, OBP11 (SfurOBP11; ligand concentration 2, replicate 1): 31124
Fluorescence intensity, fluorescence competitive binding assay, OBP11 (SfurOBP11; ligand concentration 2, replicate 2): 31165
Fluorescence intensity, fluorescence competitive binding assay, OBP11 (SfurOBP11; ligand concentration 2, replicate 3): 31082
Fluorescence intensity, fluorescence competitive binding assay, OBP11 (SfurOBP11; ligand concentration 4, replicate 1): 31010
Fluorescence intensity, fluorescence competitive binding assay, OBP11 (SfurOBP11; ligand concentration 4, replicate 2): 31130
Fluorescence intensity, fluorescence competitive binding assay, OBP11 (SfurOBP11; ligand concentration 4, replicate 3): 30899
Fluorescence intensity, fluorescence competitive binding assay, OBP11 (SfurOBP11; ligand concentration 6, replicate 1): 26414
Fluorescence intensity, fluorescence competitive binding assay, OBP11 (SfurOBP11; ligand concentration 6, replicate 2): 32905
Fluorescence intensity, fluorescence competitive binding assay, OBP11 (SfurOBP11; ligand concentration 6, replicate 3): 29894
Fluorescence intensity, fluorescence competitive binding assay, OBP11 (SfurOBP11; ligand concentration 8, replicate 1): 27729
Fluorescence intensity, fluorescence competitive binding assay, OBP11 (SfurOBP11; ligand concentration 8, replicate 2): 29971
Fluorescence intensity, fluorescence competitive binding assay, OBP11 (SfurOBP11; ligand concentration 8, replicate 3): 31279
Fluorescence intensity, fluorescence competitive binding assay, OBP11 (SfurOBP11; ligand concentration 10, replicate 1): 29221
Fluorescence intensity, fluorescence competitive binding assay, OBP11 (SfurOBP11; ligand concentration 10, replicate 2): 29436
Fluorescence intensity, fluorescence competitive binding assay, OBP11 (SfurOBP11; ligand concentration 10, replicate 3): 31039
Fluorescence intensity, fluorescence competitive binding assay, OBP11 (SfurOBP11; ligand concentration 12, replicate 1): 26981
Fluorescence intensity, fluorescence competitive binding assay, OBP11 (SfurOBP11; ligand concentration 12, replicate 2): 32241
Fluorescence intensity, fluorescence competitive binding assay, OBP11 (SfurOBP11; ligand concentration 12, replicate 3): 28868
Fluorescence intensity, fluorescence competitive binding assay, OBP11 (SfurOBP11; ligand concentration 14, replicate 1): 27521
Fluorescence intensity, fluorescence competitive binding assay, OBP11 (SfurOBP11; ligand concentration 14, replicate 2): 30203
Fluorescence intensity, fluorescence competitive binding assay, OBP11 (SfurOBP11; ligand concentration 14, replicate 3): 30415
Fluorescence intensity, fluorescence competitive binding assay, OBP11 (SfurOBP11; ligand concentration 16, replicate 1): 28709
Fluorescence intensity, fluorescence competitive binding assay, OBP11 (SfurOBP11; ligand concentration 16, replicate 2): 28254
Fluorescence intensity, fluorescence competitive binding assay, OBP11 (SfurOBP11; ligand concentration 16, replicate 3): 29164
Fluorescence intensity, fluorescence competitive binding assay, OBP11 (SfurOBP11; ligand concentration 18, replicate 1): 29699
Fluorescence intensity, fluorescence competitive binding assay, OBP11 (SfurOBP11; ligand concentration 18, replicate 2): 28164
Fluorescence intensity, fluorescence competitive binding assay, OBP11 (SfurOBP11; ligand concentration 18, replicate 3): 26628
Fluorescence intensity, fluorescence competitive binding assay, OBP11 (SfurOBP11; ligand concentration 20, replicate 1): 26046
Fluorescence intensity, fluorescence competitive binding assay, OBP11 (SfurOBP11; ligand concentration 20, replicate 2): 24149
Fluorescence intensity, fluorescence competitive binding assay, OBP11 (SfurOBP11; ligand concentration 20, replicate 3): 23426
IC50 (SfurOBP2; SfurOBP2, protein and 1-NPN both 2.0 µM, competitor 2-20 µM, read-out: IC50): > 20 µM
Fluorescence competitive binding assay, OBP2 (raw fluorescence reading) (SfurOBP2; ligand concentration 2 (unit not given), replicate column 1 of 3): 22088
Fluorescence competitive binding assay, OBP2 (raw fluorescence reading) (SfurOBP2; ligand concentration 2 (unit not given), replicate column 2 of 3): 18683
Fluorescence competitive binding assay, OBP2 (raw fluorescence reading) (SfurOBP2; ligand concentration 2 (unit not given), replicate column 3 of 3): 19796
Fluorescence competitive binding assay, OBP2 (raw fluorescence reading) (SfurOBP2; ligand concentration 4 (unit not given), replicate column 1 of 3): 22227
Fluorescence competitive binding assay, OBP2 (raw fluorescence reading) (SfurOBP2; ligand concentration 4 (unit not given), replicate column 2 of 3): 21034
Fluorescence competitive binding assay, OBP2 (raw fluorescence reading) (SfurOBP2; ligand concentration 4 (unit not given), replicate column 3 of 3): 22529
Fluorescence competitive binding assay, OBP2 (raw fluorescence reading) (SfurOBP2; ligand concentration 6 (unit not given), replicate column 1 of 3): 22620
Fluorescence competitive binding assay, OBP2 (raw fluorescence reading) (SfurOBP2; ligand concentration 6 (unit not given), replicate column 2 of 3): 20809
Fluorescence competitive binding assay, OBP2 (raw fluorescence reading) (SfurOBP2; ligand concentration 6 (unit not given), replicate column 3 of 3): 24859
Fluorescence competitive binding assay, OBP2 (raw fluorescence reading) (SfurOBP2; ligand concentration 8 (unit not given), replicate column 1 of 3): 22235
Fluorescence competitive binding assay, OBP2 (raw fluorescence reading) (SfurOBP2; ligand concentration 8 (unit not given), replicate column 2 of 3): 21135
Fluorescence competitive binding assay, OBP2 (raw fluorescence reading) (SfurOBP2; ligand concentration 8 (unit not given), replicate column 3 of 3): 22654
Fluorescence competitive binding assay, OBP2 (raw fluorescence reading) (SfurOBP2; ligand concentration 10 (unit not given), replicate column 1 of 3): 23550
Fluorescence competitive binding assay, OBP2 (raw fluorescence reading) (SfurOBP2; ligand concentration 10 (unit not given), replicate column 2 of 3): 22474
Fluorescence competitive binding assay, OBP2 (raw fluorescence reading) (SfurOBP2; ligand concentration 10 (unit not given), replicate column 3 of 3): 20461
Fluorescence competitive binding assay, OBP2 (raw fluorescence reading) (SfurOBP2; ligand concentration 12 (unit not given), replicate column 1 of 3): 24276
Fluorescence competitive binding assay, OBP2 (raw fluorescence reading) (SfurOBP2; ligand concentration 12 (unit not given), replicate column 2 of 3): 21111
Fluorescence competitive binding assay, OBP2 (raw fluorescence reading) (SfurOBP2; ligand concentration 12 (unit not given), replicate column 3 of 3): 21373
Fluorescence competitive binding assay, OBP2 (raw fluorescence reading) (SfurOBP2; ligand concentration 14 (unit not given), replicate column 1 of 3): 23028
Fluorescence competitive binding assay, OBP2 (raw fluorescence reading) (SfurOBP2; ligand concentration 14 (unit not given), replicate column 2 of 3): 21327
Fluorescence competitive binding assay, OBP2 (raw fluorescence reading) (SfurOBP2; ligand concentration 14 (unit not given), replicate column 3 of 3): 21239
Fluorescence competitive binding assay, OBP2 (raw fluorescence reading) (SfurOBP2; ligand concentration 16 (unit not given), replicate column 1 of 3): 18660
Fluorescence competitive binding assay, OBP2 (raw fluorescence reading) (SfurOBP2; ligand concentration 16 (unit not given), replicate column 2 of 3): 19708
Fluorescence competitive binding assay, OBP2 (raw fluorescence reading) (SfurOBP2; ligand concentration 16 (unit not given), replicate column 3 of 3): 19350
Fluorescence competitive binding assay, OBP2 (raw fluorescence reading) (SfurOBP2; ligand concentration 18 (unit not given), replicate column 1 of 3): 24040
Fluorescence competitive binding assay, OBP2 (raw fluorescence reading) (SfurOBP2; ligand concentration 18 (unit not given), replicate column 2 of 3): 25474
Fluorescence competitive binding assay, OBP2 (raw fluorescence reading) (SfurOBP2; ligand concentration 18 (unit not given), replicate column 3 of 3): 26650
Fluorescence competitive binding assay, OBP2 (raw fluorescence reading) (SfurOBP2; ligand concentration 20 (unit not given), replicate column 1 of 3): 24631
Fluorescence competitive binding assay, OBP2 (raw fluorescence reading) (SfurOBP2; ligand concentration 20 (unit not given), replicate column 2 of 3): 21130
Fluorescence competitive binding assay, OBP2 (raw fluorescence reading) (SfurOBP2; ligand concentration 20 (unit not given), replicate column 3 of 3): 21384
Fluorescence competitive binding assay, fluorescence intensity (SfurOBP3; ligand concentration 2): 44756 and 46756 and 45756
Fluorescence competitive binding assay, fluorescence intensity (SfurOBP3; ligand concentration 4): 44765 and 44970 and 45189
Fluorescence competitive binding assay, fluorescence intensity (SfurOBP3; ligand concentration 6): 56655 and 51780 and 54218
Fluorescence competitive binding assay, fluorescence intensity (SfurOBP3; ligand concentration 8): 56206 and 55200 and 54212
Fluorescence competitive binding assay, fluorescence intensity (SfurOBP3; ligand concentration 10): 105189 and 108079 and 109909
Fluorescence competitive binding assay, fluorescence intensity (SfurOBP3; ligand concentration 12): 109051 and 110510 and 104814
Fluorescence competitive binding assay, fluorescence intensity (SfurOBP3; ligand concentration 14): 104242 and 103301 and 109995
Fluorescence competitive binding assay, fluorescence intensity (SfurOBP3; ligand concentration 16): 96286 and 114978 and 85581
Fluorescence competitive binding assay, fluorescence intensity (SfurOBP3; ligand concentration 18): 113407 and 123942 and 62401
Fluorescence competitive binding assay, fluorescence intensity (SfurOBP3; ligand concentration 20): 54560 and 56227 and 56504
IC50 (SfurOBP3; SfurOBP3, protein and 1-NPN both 2.0 µM, competitor 2-20 µM, read-out: IC50): > 20 µM

Reference: publication PMC6409085, “Three odorant-binding proteins are involved in the behavioral response of Sogatella furcifera to rice plant volatiles” (PeerJ, 2019)
